Data reported in US6596715B1, “Protease inhibitors” (SmithKline Beecham Corporation, priority 1999, dated 2003).

Test: Chiral / configurational stability at the carbon alpha to the ketone
Assay type: physicochemical

SMILES: [2H]C1(NC(=O)[C@H](CC(C)C)NC(=O)c2ccc3ccccc3n2)CCCN(S(=O)(=O)c2cccc[n+]2[O-])C([2H])([2H])C1=O (stereo partly drawn) [Formula (I), quinoline-2-carboxylic acid {(S)-3-methyl-1-[(2,2,4-trideuterio)-3-oxo-1-(1-oxy-pyridine-2-sulfonyl)-azepan-4-ylcarbamoyl]-butyl}amide]
- configurational stability at the carbon center alpha to the ketone (compared to the corresponding 5 and 6 membered ring compounds): configurationally more stable
- chiral stability (compared to the protonated isomer): superior chiral stability
